Measured values from patent US20090041888A1, “USE OF FORMULATED DIETS PROVIDING IMPROVED DIGESTION IN FISH” (SOUTHERN ILLINOIS UNIVERSITY, priority 2005, published 2009).

What was measured:
[1] = tested on: hybrid striped bass (Morone chrysops X M. saxatilis); test: Growth and feed efficiency trial of practical diets supplemented with a non-nutritive emulsifier; assay type: in vivo; conditions: for FCR (feed conversion ratio) / Weight Gain (%): 28 days, initial weight 15 g; for Weight Gain (%): fed daily to satiation
From the text: The present example provides details of experiments conducted to evaluate and quantify the effects of a non-nutritive emulsifier upon the growth and feed efficiency of phase-I hybrid striped bass (Morone chrysops×M. saxatilis). Tween-80® (provided as a liquid supplement) was incorporated into practical diets formulated to meet, or exceed, the known nutrient requirements of hybrid striped bass. Diets were formulated at Southern Illinois University using MIXIT 3 WIN (Agricultural Software Consultants, Inc., San Diego) and manufactured as cold pressed pellets.
Fish were stocked at a density of 15 fish per tank. Four practical diets were formulated to meet or exceed the known dietary requirements of juvenile hybrid striped bass. Each diet was supplemented with one of four concentrations of emulsifier providing dietary treatments of 0, 0.5, 1.0, and 2.0% Tween-80®, respectively. Fish were fed daily to satiation and feed consumption was monitored weekly. After 4 weeks, all fish in each tank were weighed to determine growth. Feed consumption was used to calculate feed conversion ratio (g feed:g weight gain).

[2] = tested on: juvenile sunshine bass Morone chrysops×M. saxatilis; test: Gastric residuum stratification trial with pelleted diets with varied levels of lecithin inclusion; assay type: in vivo; conditions: 2% BWD meal, 4.5 h post-prandial
From the text: Residuum appearance: Nine pellet trained sub-adult spotted bass (mean weight=150 grams) were maintained in isolation in 37.8 L glass aquariums for seven days. During days 1-5, the bass were hand-fed to satiation once daily with either a semi-purified pellet diet (See Table 2), live paper shell crayfish (Orconectes immunis), or live fathead minnows (Pimephales promelas). Three bass were given each dietary treatment. Crayfish and minnows were maintained on the same pelleted diet as the bass and fed to apparent satiation two times daily. On Day 6, food was withheld to allow complete evacuation of gastric contents. On Day 7, the bass were fed that same food as during Days 1-5, at a rate of approximately 2% of their body weight (dry weight of feed/wet weight of bass). Post-prandially (4.5 hours) the bass were dispatched with blunt trauma to the head before immersion in liquid nitrogen until frozen solid (approx. 2 mins.). The bass were stored frozen until the residuum was removed by dissection. The position of the pyloric sphincter was noted relative to the observed strata. Representative residua were photographed. Residuum strata were separated using a razor blade for determination of proximate composition.
Juvenile sunshine bass Morone chrysops×M. saxatilis (n=15) were stocked individually into 110 L tanks and acclimated for a period of five days. […]

[3] = juvenile hybrid striped bass, practical diets

Compound	FCR (feed conversion ratio) ([1]; 0.5% Tween-80 in diet)	Weight Gain (%) ([1]; 0.5% Tween-80 in diet)	FCR (feed conversion ratio) ([1]; 1.0% Tween-80 in diet)	Weight Gain (%) ([1]; 1.0% Tween-80 in diet)	FCR (feed conversion ratio) ([1]; 2.0% Tween-80 in diet)	Weight Gain (%) ([1]; 2.0% Tween-80 in diet)	feed conversion compared to fish fed a control diet void of Tween-80 [1, 3]	weight gain compared to fish fed a control diet void of Tween-80 [1, 3]	stratification of the gastric residuum ([2]; lecithin inclusion rates of 0.25, 0.50, 1.00 and 2.00% of pellet weight)	amount of post-prandial water intake into the gastric residuum ([2]; lecithin inclusion rates of 0.50, 1.00 and 2.00%)
CCCCCCCC/C=C\CCCCCCCC(=O)OCCOCC(OCCO)C1OCC(OCCO)C1OCCO (stereo not shown) [Tween-80]	1.21 g feed:g gain	118	1.16 g feed:g gain	140	1.23 g feed:g gain	125	improved	improved	–	–
lecithin (phosphatidyl choline)	–	–	–	–	–	–	–	–	reduce stratification of the gastric residuum	reduce the amount of post-prandial water intake
